Experimental findings from patent publication US20080255244A1, “CaM Kinase II Inhibitor Improves Retinoic Acid Therapy and Inhibits the Proliferation of Myeloid Leukemia Cells” (Fred Hutchinson Cancer Research Center, priority 2007, published 2008) are described below.

“Also recorded” adds a separate entry of the source.

Test [1] has as its system autophosphorylated CaMKIIγ in TonB210.1 cells. The experiment in a line: bcr-abl induced CaMKII autophosphorylation in TonB210.1 cells (Western blot). The class given is cell-based. To be noted: TonB210.1 deprived of IL-3 for 24 hours, compound added with doxycycline. Background: A western blot detects proteins with antibodies after separation by electrophoresis.
The subject of another test is K562 cells. The experiment in a line: K562 proliferation in liquid suspension culture (cell counts). Type of test: cell-based, human. To be noted: seeded at 5×10^4 cells/ml; cell counts.
Test [2] concerns autophosphorylated CaMKIIγ in HL60 cells. The experiment in a line: Western blot of CaMKIIγ autophosphorylation in HL60 cells. The class given is cell-based, human. As to conditions: phospho-T286/7 antibody, ATRA 1 μM, TPA 0.1 μM. As to the method:
(§1) FIG. 7. KN-62 regulates the differentiation of myeloid leukemia cell lines. (A) Wright Giemsa-stained HL-60 cells either (a) uninduced or treated for five days with (b) KN62 or (c) ATRA. (d) CD11b expression in HL-60 cells after five days exposure to KN62 (5 μM) or ATRA (1 μM). (B) Wright-Giemsa stained NB4 cells treated for five days with KN-62 (5 μM) and ATRA as indicated. […] (C) Cd11b expression of NB4 cells treated for five days with the indicated concentrations of RA and/or KN-62. (D) Western blots with the indicated antibodies were performed on HL60 cell lysates following incubation with KN62 for the indicated period of time. (E) Western blots of NB4 cell lysates following a five day incubation with the indicated compounds.
(§2) FIG. 9. Terminal differentiation/apoptosis of myeloid leukemia cells is associated with decreased CaMKIIγ activation. (A) Lysates from the HL60, NB4 and U937 myeloid cell lines treated with ATRA (1 μM) for the indicated period of time were subjected to Western blots. (B) Lysates from the indicated myeloid cell lines treated for five days with the indicated concentration of ATRA were subjected to Western blots. (C) Lysates from HL60 cells treated with TPA (0.1 μM) for the indicated time were subjected to Western blots. (D) Lysates from NB4 cells treated with arsenic trioxide (1 uM) for the indicated time were subjected to Western blots.
(§3) Protein extracts, Western blotting and co-immunoprecipitations. Westerns and co-immunoprecipitations were performed as previously detailed (Si, J., and Collins, S. J., Blood 100:4401-4409 (2002)).
(§4) Antibodies and Western blots. Protein extracts, immunoprecipitations and Western blots were performed as previously detailed (Si J, Collins S J. IL-3-induced enhancement of retinoic acid receptor activity is mediated through Stat5, which physically associates with retinoic acid receptors in an IL-3-dependent manner. Blood 100: 4401-9 (2002)). Antibodies against CaMKI, CaMKIIγ, CaMKIV, c-myc, Stat3, Stat5, calmodulin, as well as the phosphospecific CaMKII (T286, 287) and phosphospecific CaMKI (T177) antibodies were from Santa Cruz Biotechnology. Antibodies against phospho-Stat1 (Ser727), phospho-Stat3 (Ser727 and Tyr 705), phospho-Stat5 (Tyr 694), phospho-p44/42 MAP kinase (Thr202/Tyr 204), p44/42 MAP kinase, phospho-p38 MAP kinase (Thr 180/Tyr 182), phospho-GSK3β (Ser9) were from Cell Signaling Technology. Antibodies against Stat1, GSK3β, β-catenin, PP2Ac, and cyclin D1 were from BD Biosciences.

For test [3], the system named is Stat3 transcriptional activity in K562 cells. The experiment in a line: Stat3 response element luciferase reporter in K562 cells. Type of test: cell-based, human. As to conditions: 48 hours of culture. As to the method: FIG. 13. Stat3 is directly phosphorylated and activated by CaMKIIγ at Ser727. (A, i). Cell lysates from the indicated human leukemia cell lines were subjected to Western blots utilizing the indicated Stat3 antibodies. ii). Cell lysates from the same primary AML samples depicted in FIG. 1B were subjected to Western blots utilizing the indicated Stat3 antibodies. B). The IL-3 dependent TonB210.1 cells were deprived of IL-3 for 24 hours. The cells were then treated with the indicated compounds immediately prior to the addition of doxycycline. After an additional 24 hours cell lysates were harvested and subjected to Western blots with the indicated Stat3 antibodies. C). K562 cells were electroporated with a luciferase reporter driven by a Stat3 response element. The indicated concentrations of KN93 and the Stat 3 inhibitor, cucurbitacin I, were added and relative luciferase activity determined on cell lysates following 48 hours of culture. D, i) K562 cell lysates were immunoprecipitated with control IgG or a Stat3 antibody. […]
Transient transfections and luciferase assays. […] Stat3 transcriptional activity was determined in K562 cells transfected with the pSIE-tk-LUC luciferase reporter which harbors a Stat3 binding site ([…]). […]
In general terms: In a reporter assay the amount or activity of a reporter protein is the signal.

In test [4] the test system is autophosphorylated CaMKIIγ in K562 cells. The experiment in a line: Western blot of CaMKIIγ autophosphorylation in K562 cells. As to conditions: for activated, autophosphorylated CaMKIIγ level: gleevec 5 uM, ATRA five days. Type of test: cell-based, human. As for the experimental part:
as §2
FIG. 10. Inhibiting bcr-abl activity/expression inhibits CaMKIIγ activation. (A) Lysates from K562 cells undergoing growth arrest following treatment with gleevec (5 uM) for the indicated times were subjected to Western blots. (B) Lysates from TonB210.1 cells depleted of doxycycline for the indicated period of time were subjected to Western blots. (C) IL-3 dependent TonB210.1 cells were deprived of IL-3 for 24 hours (lane 1). The cells were then treated with the indicated compounds simultaneously with the addition of doxycycline (lanes 2-8). After 24 hours cell lysates were harvested and subjected to Western blots with the indicated CaMKII antibodies. (D) K562 cells were cultured for 48 hours with the indicated chemical inhibitors of specific signal transduction pathways. Cell lysates were harvested and subjected to Western blot analysis.
FIG. 12. CaMKII regulates multiple signal transduction pathways in myeloid cells. (A,B) Lysates from K562 cells cultured for the indicated time in KN93 were subjected to Western blots. (C) The K562 cells transduced as described in Materials and Methods with either (i) the doxycycline (DOX) inducible expression vector/transactivator harboring the full length, Lys^43 mutated, kinase dead CaMKIIγ (kdCaMKIIγ (Tet-on)) or (ii) the CaMKII shRNA generating plasmids, were cultured in liquid suspension in the presence or absence of DOX as indicated, and cell counts obtained after 48 hours. (D) Lysates from K562 cells transduced with the indicated vectors were subjected to Western blots utilizing the indicated antibodies. For lanes 2 and 4 doxycycline (DOX) treatment was for two days.
as §4

Test [5] concerns RAR transcriptional activity in HL60 cells. Kind of test: RARE-driven luciferase reporter in HL60 cells. Type of test: cell-based, human. To be noted: six hours after treatment with ionomycin and ATRA. As for the experimental part:
FIG. 1. CaM kinase isoform expression in hematopoietic cells. (A) The activity of an ATRA-responsive luciferase reporter (βRARE-tk-Luc, 25 μg) was assessed in electroporated HL60 cells six hours after treatment with the indicated concentrations of ionomycin and ATRA. (B) The activity of the luciferase reporter (βRARE-tk-Luc, 25 μg) was assessed in HL60 six hours after treatment with KN62 (5 uM), KN93 (5 uM) and ATRA (1 uM). (C) Western blots were performed utilizing the indicated antibodies. F9 (column 6) is a mouse embryonal carcinoma cell line. BaF3 (column 7) is a cultured pre-B cell line. BM cells (column 8) are kit-ligand dependent normal murine hematopoietic precursors. PT67 murine fibroblasts individually transduced with either rat CaMKIIα, human CaMKIα or human CaMKIV (column 9) together with brain lysates (column 1) serve as positive controls for the respective antibodies. (D) CaMK assays were performed on HL-60 cell lysates immunoprecipitated with the indicated antibodies.
Transient transfections and luciferase assays. Murine PT67 fibroblasts were transfected utilizing calcium phosphate precipitation. All hematopoietic cell lines were transiently transfected by electroporation as previously detailed (Johnson, B. et al., Molecular and Cellular Biology 19:3372-3382 (1999)). In the transient transfections the LXSN vector (M28248) served as the expression vector for the wild type and site-directed mutagenized CaMKII and RARα coding region cDNAs. Human cDNA homologous to the coding region of rat CaMKIINα, a CaMKII inhibitory protein, was obtained by RT-PCR from HL60 RNA and cloned into the LXSN vector. The RA-responsive luciferase reporter harbors the RARE from the RARβ2 promoter as previously detailed (Si, J., and Collins, S. J., Blood 100:4401-4409 (2002)). The PON838 plasmid, a β-galactosidase reporter driven by the β-actin promoter, was used as an internal control to determine transfection efficiency for calculating relative luciferase activity.

For test [6], the system named is autophosphorylated CaMKIIγ in NB4 cells. Kind of test: Western blot of CaMKIIγ autophosphorylation in NB4 cells. The class given is cell-based, human. As to conditions: single agent, ATRA 1 μM, arsenic trioxide 1 uM. As to the method:
as §1, §2, §3, §4

Regarding `O=C(O)c1ccc2c3c1cccc3c(=O)n1c3ccccc3nc21` [STO609], the “bcr-abl (tet/doxycycline) restored CaMKII autophosphorylation” value in test [1] is given as “not inhibited”. The K562 cell proliferation entry with K562 cells is reported as “did not significantly inhibit; also recorded: minimal effects”. Take `CCCCCCCCCCCCCC(=O)O[C@@H]1[C@@H](C)[C@@]2(O)[C@@H](C=C(CO)C[C@]3(O)C(=O)C(C)=C[C@@H]23)[C@@H]2C(C)(C)[C@]12OC(C)=O` [TPA, phorbol myristate acetate]: the “activated, autophosphorylated CaMKIIγ level” value in test [2] is “marked decrease”. With `CC(C)(O)/C=C/C(=O)[C@](C)(O)[C@H]1[C@H](O)C[C@@]2(C)[C@@H]3CC=C4[C@@H](C=C(O)C(=O)C4(C)C)[C@]3(C)C(=O)C[C@]12C` [cucurbitacin I], the “Stat3 responsive reporter activity” value in test [3] is recorded as “inhibit”. With `Cc1ccc(NC(=O)c2ccc(CN3CCN(C)CC3)cc2)cc1Nc1nccc(-c2cccnc2)n1` [imatinib], in test [4], the “total CaMKIIγ level” value is “no significant change” and the “activated, autophosphorylated CaMKIIγ level” value is “rapid, marked decrease”. Further, the “activated, autophosphorylated CaMKIIγ level” value in test [4] (listed as gleevec) is “downregulation”. In addition, in the test with K562 cells, the K562 cell proliferation result was “proliferative arrest”. As to `C[C@H](CCC(=O)O)C[C@H](C)C[C@H](C)C(=O)/C=C(\O)[C@H](C)C[C@H](C)C/C=C/[C@@H](C)[C@@H](O)[C@@H](C)[C@@H](O)C[C@@H]1CC[C@@](C)([C@H]2CC[C@@](C)([C@@H](C)O)O2)O1` [ionomycin], the “ATRA-induced activity of RARE-driven luciferase reporter” value in test [5] is reported as “inhibited”.

In the case of KN92, the K562 cell proliferation entry in the test with K562 cells is reported as “did not significantly inhibit”. Regarding arsenic trioxide, in test [6], the “activated, autophosphorylated CaMKIIγ level” value is reported as “downregulation”.
